Converted amounts (≈) assume the structure as drawn. Read-outs that look alike come from different tables or passages of the source.

The subject of test [1] is erythroid hematopoietic progenitor cells derived from human bone marrow. The test can be described thus: erythroid colony formation of hematopoietic progenitor cells. The test is classed as cell-based. The conditions noted are these: 336 h, human bone marrow progenitor cells. As to the method: (§1) Compound 1 was evaluated for its effects on proliferation of erythroid and myeloid hematopoietic progenitor cells derived from human bone marrow at […] Technologies Inc. (Vancouver, BC, Canada).
(§2) Cells were thawed rapidly at 37° C. into DNAse I and then diluted in 10 mL of Iscove's Modified Dulbecco's medium containing 2% fetal bovine serum (IMDM+2% FBS) and washed by centrifugation (1200 rpm for 10 minutes at room temperature). The supernatant was discarded and the cell pellet resuspended in a known volume of IMDM+2% FBS. A nucleated cell count (3% glacial acetic acid) and viability assessment (trypan blue exclusive test) were performed.
(§3) Compound 1 and positive control (panobinostat) were diluted in DMSO and tested at concentrations ranging from 0.002 μM to 5 μM in final media. These dilutions provided the appropriate final test concentrations required for the test and control articles ([…], and 0.002 μM).
(§4) Test and control articles were incubated with human bone marrow hematopoietic progenitor cells. After 14 days, cell colonies were assessed.
(§5) To calculate the concentration of 50% and 90% inhibition of colony growth (IC50 and IC90) for each test article, a dose response curve was generated plotting the log of the test article concentration versus the percentage of control colony growth using GraphPad Prism. […] The IC50 and IC90 values for both test and control articles were derived from an interpolation of the curve fit. In cases where the IC50/90 value reported by GraphPad Prism is a value beyond the range of concentrations that were actually tested, if this value is more than 4 times the highest concentration tested, or where GraphPad Prism cannot calculate an IC50/90 value, notations of >5 μM (for test article compound 1) are used.

Test [2] relates to myeloid hematopoietic progenitor cells derived from human bone marrow. The test can be described thus: myeloid colony formation of hematopoietic progenitor cells. In kind it is cell-based. Conditions: 336 h, human bone marrow progenitor cells. As to the method:
as §1, §2, §3, §4, §5

For `Cc1[nH]c2ccccc2c1CCNCc1ccc(/C=C/C(=O)NO)cc1` [Panobinostat, reference compound], the IC50 (commonly the concentration that gives 50% inhibition) was < 10 nM in test [1] (14 days, read-out: IC50, inhibition of erythroid colony formation); 6.4 ng/mL in test [1] (colony growth after 14 days, read-out: Erythroid IC50); < 10 nM in test [2] (14 days, read-out: IC50, inhibition of myeloid colony formation); 7.4 ng/mL in test [2] (colony growth after 14 days, read-out: Myeloid IC50). In addition, the IC90 (usually the point of the concentration-response curve where the effect stands at 90%) in test [1] (colony growth after 14 days) came out at 7.5 ng/mL (≈ 0.0215 µM); in test [2] (colony growth after 14 days), 8.1 ng/mL (≈ 0.0232 µM).

The record behind these values is patent publication US20250025451A1, “TREATMENT OF CANCER WITH KDM4 INHIBITORS” (Celgene Corporation, priority 2021, published 2025).
